# Experimental data: PubChem BioAssay AID330 (DTP/NCI, 2004)
# Values joined by “and” are separate entries in the source; they are usually repeats but may differ in a detail not shown here. Equal values may be shown once. Toxic doses and inconclusive results are not listed.
# Tested on: P388 leukemia ip, CD2F1 mice, survival T/C
# Assay: NCI In Vivo Anticancer Drug Screen. Data for tumor model P388 Leukemia (intraperitoneal) in CD2F1 (CDF1) mice
# Conditions: endpoint: median survival time, higher = longer survival
# How it was run: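 Mice carrying the transplanted tumor received test compound or vehicle. Survival was recorded in each group, and the value is the treated-group measurement divided by that of the vehicle-treated control group.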
# [1] = dose: 25.0 mg/kg/injection, schedule: Q01DX009 (ip), vehicle: water
# [2] = dose: 50.0 mg/kg/injection, schedule: Q01DX009 (ip), vehicle: water
# [3] = dose: 100.0 mg/kg/injection, schedule: Q01DX009 (ip), vehicle: water
# [4] = dose: 200.0 mg/kg/injection, schedule: Q01DX009 (ip), vehicle: water
# [5] = dose: 50.0 mg/kg/injection, schedule: Q01DX009 (ip), vehicle: saline with Tween-80
# [6] = dose: 100.0 mg/kg/injection, schedule: Q01DX009 (ip), vehicle: saline with Tween-80
# [7] = dose: 200.0 mg/kg/injection, schedule: Q01DX009 (ip), vehicle: saline with Tween-80
# [8] = dose: 60.0 mg/kg/injection, schedule: Q01DX005 (ip), vehicle: saline with Tween-80
# [9] = dose: 120.0 mg/kg/injection, schedule: Q01DX005 (ip), vehicle: saline with Tween-80
# [10] = dose: 240.0 mg/kg/injection, schedule: Q01DX005 (ip), vehicle: saline with Tween-80
# [11] = dose: 400.0 mg/kg/injection, schedule: Q01DX009 (ip), vehicle: saline with Tween-80
# [12] = dose: 25.0 mg/kg/injection, schedule: Q01DX009 (ip), vehicle: saline with Tween-80
# [13] = dose: 25.0 mg/kg/injection, schedule: Q01DX009 (ip), vehicle: saline
# [14] = dose: 50.0 mg/kg/injection, schedule: Q01DX009 (ip), vehicle: saline
# [15] = dose: 100.0 mg/kg/injection, schedule: Q01DX009 (ip), vehicle: saline
# [16] = dose: 200.0 mg/kg/injection, schedule: Q01DX009 (ip), vehicle: saline
# [17] = dose: 25.0 mg/kg/injection, schedule: Q01DX009 (ip), vehicle: Klucel (hydroxypropylcellulose) (HPC)
# [18] = dose: 50.0 mg/kg/injection, schedule: Q01DX009 (ip), vehicle: Klucel (hydroxypropylcellulose) (HPC)
# [19] = dose: 100.0 mg/kg/injection, schedule: Q01DX009 (ip), vehicle: Klucel (hydroxypropylcellulose) (HPC)
# [20] = dose: 100.0 mg/kg/injection, schedule: Q04DX003 (ip), vehicle: saline
# [21] = dose: 200.0 mg/kg/injection, schedule: Q04DX003 (ip), vehicle: saline
# [22] = dose: 400.0 mg/kg/injection, schedule: Q04DX003 (ip), vehicle: saline
# [23] = dose: 100.0 mg/kg/injection, schedule: Q01DX001 (ip), vehicle: saline with Tween-80
# [24] = dose: 200.0 mg/kg/injection, schedule: Q01DX001 (ip), vehicle: saline with Tween-80
# [25] = dose: 400.0 mg/kg/injection, schedule: Q01DX001 (ip), vehicle: saline with Tween-80
# [26] = dose: 200.0 mg/kg/injection, schedule: Q01DX009 (ip), vehicle: Klucel (hydroxypropylcellulose) (HPC)
# [27] = dose: 100.0 mg/kg/injection, schedule: Q04DX002 (ip), vehicle: saline
# [28] = dose: 200.0 mg/kg/injection, schedule: Q04DX002 (ip), vehicle: saline
# [29] = dose: 400.0 mg/kg/injection, schedule: Q04DX002 (ip), vehicle: saline
smiles,measurement,setting,value
Cc1ccnc(NN=O)n1,T/C,"dose: 3.12 mg/kg/injection, schedule: Q01DX009 (ip), vehicle: water",99 % of control
same,T/C,"dose: 6.25 mg/kg/injection, schedule: Q01DX009 (ip), vehicle: water",113 % of control
same,T/C,"dose: 12.5 mg/kg/injection, schedule: Q01DX009 (ip), vehicle: water",98 % of control
same,T/C,[1],100 % of control and 105 % of control
same,T/C,[2],113 % of control and 90 % of control
same,T/C,[3],100 % of control
same,T/C,[4],104 % of control
CC(=O)OC1CC2CCC1(CC(=O)c1ccccc1)C2(C)C (stereo unspecified),T/C,[5],96 % of control
same,T/C,[6],92 % of control
same,T/C,[7],100 % of control
OCc1cc2ccc3ccccc3c2[nH]1,T/C,[8],96 % of control
same,T/C,[9],89 % of control
same,T/C,[10],91 % of control
O=C(OCC1OC(n2cnc3c(=S)nc[nH]c32)C(OC(=O)c2ccc(Cl)cc2)C1OC(=O)c1ccc(Cl)cc1)c1ccc(Cl)cc1 (stereo unspecified),T/C,[5],90 % of control
same,T/C,[6],90 % of control
same,T/C,[7],90 % of control
same,T/C,[11],90 % of control
CCCCCSCN(CC)CC,T/C,[12],103 % of control
same,T/C,[13],99 % of control and 101 % of control
same,T/C,[14],100 % of control and 104 % of control and 91 % of control
same,T/C,[15],99 % of control and 101 % of control and 104 % of control
same,T/C,[7],114 % of control
same,T/C,[16],119 % of control (2×) and 120 % of control
O=C(Nc1ccccc1)Oc1ccc[nH]c1=O,T/C,[17],117 % of control and 122 % of control
same,T/C,[13],113 % of control and 120 % of control
same,T/C,[18],117 % of control and 123 % of control
same,T/C,[14],118 % of control
same,T/C,[19],87 % of control
Cn1c(=O)c2c(ncn2CCNC(c2ccccc2)c2cccc(Cl)c2)n(C)c1=O (stereo unspecified),T/C,"dose: 6.25 mg/kg/injection, schedule: Q01DX005 (ip), vehicle: alkali diluted with saline",101 % of control
same,T/C,"dose: 12.5 mg/kg/injection, schedule: Q01DX005 (ip), vehicle: alkali diluted with saline",94 % of control
same,T/C,"dose: 25.0 mg/kg/injection, schedule: Q01DX005 (ip), vehicle: alkali diluted with saline",97 % of control
COCCOC(C)C(=O)C(O)S(=O)(=O)O (stereo unspecified),T/C,[15],109 % of control
same,T/C,[20],100 % of control
same,T/C,[21],100 % of control
same,T/C,"dose: 400.0 mg/kg/injection, schedule: Q01DX009 (ip), vehicle: saline",154 % of control
same,T/C,[22],107 % of control
COc1ccc2c(=O)c(-c3ccc(OC)c(OC)c3)c(C)oc2c1,T/C,[8],94 % of control
same,T/C,[9],91 % of control
same,T/C,[10],86 % of control
CSc1nc(NC2OC(CO)C(O)C(O)C2O)c(C=O)c(=O)n1C (stereo unspecified),T/C,[8],100 % of control
same,T/C,[9],92 % of control
same,T/C,[10],91 % of control
OC1CN(CCCCCCN2CC(O)ON2)NO1 (stereo unspecified),T/C,[14],93 % of control
same,T/C,[15],93 % of control
same,T/C,[16],97 % of control
CC(C)N(C(=O)C1CCN(Cc2c[nH]c3ccccc23)CC1)C(C)C,T/C,"dose: 12.5 mg/kg/injection, schedule: Q01DX009 (ip), vehicle: saline with Tween-80",108 % of control
same,T/C,[12],101 % of control
same,T/C,[5],101 % of control
same,T/C,[6],115 % of control
NC(=O)N/N=C1\CC2C=CC1/C=C\C=C\2 (stereo unspecified),T/C,[23],100 % of control
same,T/C,[24],106 % of control
same,T/C,[25],106 % of control
C/C=C\C1OC1(C)c1cc(=O)c2c(C)cc3c(c2o1)C(=O)c1c(O)c(C2CC(C)(N(C)C)C(OC(C)=O)C(C)O2)cc(C2CC(N(C)C)C(O)C(C)O2)c1C3=O (stereo unspecified),T/C,"dose: 1.0 mg/kg/injection, schedule: Q01DX009 (ip), vehicle: saline + alcohol",122 % of control
same,T/C,"dose: 1.0 mg/kg/injection, schedule: Q01DX010 (ip), vehicle: saline",154 % of control
same,T/C,"dose: 2.0 mg/kg/injection, schedule: Q01DX010 (ip), vehicle: saline",95 % of control
O=C1CCC(=O)N1CC(O)COc1ccccc1 (stereo unspecified),T/C,[6],95 % of control
same,T/C,[7],95 % of control
same,T/C,[11],100 % of control
CCCCOP(=O)(O)OCCCC.[U],T/C,"dose: 6.25 mg/kg/injection, schedule: Q01DX009 (ip), vehicle: saline with Tween-80",97 % of control
CCCCc1ccc(Nc2c(C(=O)O)cnc3cc4c(cc23)OCO4)cc1,T/C,"dose: 60.0 mg/kg/injection, schedule: Q01DX005 (ip), vehicle: Klucel + Tween-80",103 % of control
same,T/C,"dose: 120.0 mg/kg/injection, schedule: Q01DX005 (ip), vehicle: Klucel + Tween-80",100 % of control
same,T/C,"dose: 240.0 mg/kg/injection, schedule: Q01DX005 (ip), vehicle: Klucel + Tween-80",97 % of control
CCCCC(/C=N/NC(N)=S)C(=O)OCC (stereo unspecified),T/C,"dose: 60.0 mg/kg/injection, schedule: Q01DX005 (ip), vehicle: Klucel (hydroxypropylcellulose) (HPC)",102 % of control
same,T/C,"dose: 120.0 mg/kg/injection, schedule: Q01DX005 (ip), vehicle: Klucel (hydroxypropylcellulose) (HPC)",100 % of control
same,T/C,"dose: 240.0 mg/kg/injection, schedule: Q01DX005 (ip), vehicle: Klucel (hydroxypropylcellulose) (HPC)",100 % of control
CCOc1ccc(N2C(=O)C(=O)C(C(C)=O)C2=O)cc1 (stereo unspecified),T/C,[18],108 % of control
same,T/C,[19],106 % of control
same,T/C,[26],100 % of control
CC1(C)COCN(C2CCCCC2)C1,T/C,"dose: 15.0 mg/kg/injection, schedule: Q01DX009 (ip), vehicle: saline with Tween-80",119 % of control
same,T/C,"dose: 30.0 mg/kg/injection, schedule: Q01DX009 (ip), vehicle: saline with Tween-80",100 % of control
same,T/C,"dose: 60.0 mg/kg/injection, schedule: Q01DX009 (ip), vehicle: saline with Tween-80",108 % of control
O=[N+]([O-])c1ccc(OCS(=O)(=O)c2ccc(Cl)cc2)cc1,T/C,[5],95 % of control
same,T/C,[6],92 % of control
same,T/C,[7],95 % of control
N[C@@H](C(=O)O)[C@@H]1C=CCCC1,T/C,[27],101 % of control
same,T/C,[28],94 % of control
C=C1C(C#N)=C(SC)SC(=S)N1CC,T/C,"dose: 50.0 mg/kg/injection, schedule: Q01DX001 (ip), vehicle: saline with Tween-80",95 % of control
same,T/C,[23],92 % of control
same,T/C,[24],93 % of control
same,T/C,[25],95 % of control
COc1ccc(C(CC(=O)O)CC(=O)N(CCCl)CCCl)cc1C (stereo unspecified),T/C,[20],102 % of control
same,T/C,[21],100 % of control
same,T/C,[22],100 % of control
O=C(NCC(CC(NC(=O)c1ccccc1)C(=O)O)NC(=O)c1ccccc1)c1ccccc1 (stereo unspecified),T/C,"dose: 12.5 mg/kg/injection, schedule: Q01DX009 (ip), vehicle: Klucel (hydroxypropylcellulose) (HPC)",89 % of control
same,T/C,[17],91 % of control
same,T/C,[18],93 % of control
same,T/C,[19],89 % of control
same,T/C,[26],90 % of control
O=S(=O)(Nc1ccc(NS(=O)(=O)c2ccccc2)cc1)c1ccccc1,T/C,"dose: 50.0 mg/kg/injection, schedule: Q04DX003 (ip), vehicle: saline",100 % of control
same,T/C,[20],109 % of control
same,T/C,[21],100 % of control
COC(=O)CCCNC(C)C,T/C,[1],97 % of control
same,T/C,[2],100 % of control
same,T/C,[3],98 % of control
same,T/C,[4],99 % of control
same,T/C,"dose: 400.0 mg/kg/injection, schedule: Q01DX009 (ip), vehicle: water",99 % of control
O=C1CCC2C(=O)OCC12 (stereo unspecified),T/C,"dose: 50.0 mg/kg/injection, schedule: Q04DX002 (ip), vehicle: saline",99 % of control
same,T/C,[27],101 % of control
same,T/C,[28],94 % of control
same,T/C,[29],100 % of control
O=C1CCN2CO[C@H](c3ccccc3)C[C@@H]2C1,T/C,"dose: 12.5 mg/kg/injection, schedule: Q01DX005 (ip), vehicle: Klucel (hydroxypropylcellulose) (HPC)",103 % of control
same,T/C,"dose: 25.0 mg/kg/injection, schedule: Q01DX005 (ip), vehicle: Klucel (hydroxypropylcellulose) (HPC)",102 % of control
same,T/C,"dose: 50.0 mg/kg/injection, schedule: Q01DX005 (ip), vehicle: Klucel (hydroxypropylcellulose) (HPC)",102 % of control
CC(C)c1cccc(C2(C)C(=O)c3ccccc3C2=O)c1,T/C,[27],99 % of control
same,T/C,[28],102 % of control
same,T/C,[29],100 % of control
